Experimental data from patent US8916599B2, “1H-benz imidazole-5-carboxamides as anti-inflammatory agents” (Orexo AB, priority 2008, dated 2014).

Biological target: T1, recombinant human mPGES-1 (Homo sapiens, UniProt O14684)
T1 construct: made in house; host or cells: Rosetta E. coli (microsomal/membrane fraction)
T1 sequence (O14684 1-152): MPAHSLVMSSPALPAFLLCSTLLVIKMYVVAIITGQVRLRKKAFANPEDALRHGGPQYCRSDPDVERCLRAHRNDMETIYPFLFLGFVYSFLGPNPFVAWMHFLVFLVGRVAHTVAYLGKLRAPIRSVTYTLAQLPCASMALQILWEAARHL
Test: mPGES-1 inhibition test (microsomes, PGH2 substrate, HTRF detection of PGE2)
Format: biochemical
Conditions: for inhibition at 10 µM: inhibition of mPGES-1 at 10 μM; for inhibition at 1 µM: inhibition of mPGES-1 at 1 μM (marked in cell)
How it was run: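 First, inhibitor is incubated with microsomal enzyme from Rosetta E. coli in KPi pH 7.4 containing 2.5 mM GSH for 25 minutes at room temperature. Next, PGH2 is added and stopped after one minute with FeCl2 stop solution. Finally, diluted samples undergo HTRF PGE2 quantification.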

Structure (SMILES) | inhibition at 10 µM [%] | inhibition at 1 µM [%]
Cc1cc(C)nc(NC(=O)c2ccc3[nH]c(Nc4ccccc4C(F)(F)F)nc3c2)c1 [Example 118, 2-(2-Trifluoromethyl-phenylamino)-1H-benzimidazole-5-carboxylic acid (4,6-dimethyl-pyridin-2-yl)-amide] | 80 | –
CC(C)Oc1cc2c(cc1C(=O)NC1CCCCC1)nc(Nc1c(Cl)ccc(Cl)c1F)n2C [Example 624, 2-(3,6-Dichloro-2-fluoro-phenylamino)-6-isopropoxy-N-cyclohexyl-1-methyl-1H-benzimidazole-5-carboxamide] | – | 100
O=C(Nc1cccc(C(F)(F)F)c1)c1ccc2[nH]c(Nc3c(Cl)cccc3Cl)nc2c1 [Example 283, 2-(2,6-Dichloro-phenylamino)-1H-benzimidazole-5-carboxylic acid (3-trifluoromethyl-phenyl)-amide] | – | 100
Cc1cccc(NC(=O)c2ccc3c(c2)nc(Nc2c(Cl)cccc2Cl)n3C)n1 [compound 328] | 95 | –
Cn1c(Nc2c(Cl)cccc2Cl)nc2cc(C(=O)Nc3cc(Cl)ccn3)ccc21 [Example 210, 2-(2,6-Dichloro-phenylamino)-1-methyl-1H-benzimidazole-5-carboxylic acid (4-chloro-pyridin-2-yl)-amide] | 100 | –
O=C(NC1CCC(C(F)(F)F)CC1)c1cc2nc(Nc3c(F)ccc(Cl)c3Cl)[nH]c2cc1OCC(F)(F)F (stereo not drawn) [Example 591, 2-(2,3-Dichloro-6-fluoro-phenylamino)-6-(2,2,2-trifluoro-ethoxy)-N-(4-trans-trifluoromethyl-cyclohex-1-yl) 1H-benzimidazole-5-carboxamide] | 99 | –
Cc1ccccc1NC(=O)c1ccc2[nH]c(Nc3c(Cl)cccc3Cl)nc2c1 [Example 3, 2-(2,6-Dichloro-phenylamino)-1H-benzimidazole-5-carboxylic acid o-tolylamide] | 95 | –
CCCC[C@H](C)NC(=O)c1cc2nc(Nc3c(Cl)cccc3Cl)n(C)c2cc1F [Example 450, (S)-2-(2,6-Dichlorophenylamino)-6-fluoro-N-(hexan-2-yl)-1-methyl-1H-benzimidazole-5-carboxamide] | 99 | –
Cn1c(Nc2c(F)cccc2Cl)nc2cc(C(=O)NC3CCCC(C)(C)C3)c(F)cc21 (stereo not drawn) [Example 404, 2-(2-Chloro-6-fluorophenylamino)-N-(3,3-dimethylcyclohexyl)-6-fluoro-1-methyl-1H-benzimidazole-5-carboxamide] | 100 | –
Cc1ccc(NC(=O)c2ccc3[nH]c(Nc4c(Cl)cccc4Cl)nc3c2)nc1C [Example 498, 2-(2,6-Dichlorophenylamino)-N-(5,6-dimethylpyridin-2-yl)-1H-benzimidazole-5-carboxamide] | 100 | –
Cn1c(Nc2ccc(Cl)cc2C(F)(F)F)nc2cc(C(=O)Nc3ccc(Br)cc3)ccc21 [Example 433, N-(4-Bromophenyl)-2-(4-chloro-2-trifluoromethyl-phenylamino)-1-methyl-1H-benzimidazole-5-carboxamide] | 99 | –
CCCC[C@H](C)NC(=O)c1cc2nc(Nc3c(Cl)cccc3Cl)[nH]c2cc1F [Example 443, (S)-2-(2,6-Dichlorophenylamino)-6-fluoro-N-(hexan-2-yl)-1H-benzimidazole-5-carboxamide] | 100 | –
Cn1c(Nc2c(Cl)cccc2Cl)nc2cc(C(=O)NCC3CCC3)c(F)cc21 [Example 516, N-(Cyclobutylmethyl)-2-(2,6-dichlorophenylamino)-6-fluoro-1-methyl-1H-benzimidazole-5-carboxamide] | 97 | –
O=C(Nc1ccc(Br)cc1)c1cc2nc(Nc3c(Cl)cccc3Cl)[nH]c2cc1Cl [Example 53, 2-(2,6-Dichloro-phenylamino)-6-chloro-1H-benzimidazole-5-carboxylic acid (4-bromo-phenyl)-amide] | 100 | –
C[C@@H]1CCC(NC(=O)c2cc3nc(Nc4c(Cl)cccc4Cl)n(C)c3cc2F)C1 (stereo partly drawn) [Example 175, 2-(2,6-Dichloro-phenylamino)-6-fluoro-1-methyl-1H-benzimidazole-5-carboxylic acid ((3R)-3-methyl-cyclopentyl)-amide] | 100 | –
COc1cc2c(cc1C(=O)NCc1ncccc1C)nc(Nc1c(Cl)cccc1Cl)n2C [Example 465, 2-(2,6-Dichlorophenylamino)-6-methoxy-1-methyl-N-((3-methylpyridin-2-yl)methyl)-1H-benzimidazole-5-carboxamide] | 100 | –
COc1cc2c(cc1C(=O)N[C@H]1CC[C@H](C(F)(F)F)CC1)nc(Nc1c(Cl)cccc1Cl)n2C [Example 369, 2-(2,6-Dichlorophenylamino)-6-methoxy-1-methyl-N-((1r,4r)-4-trifluoromethyl-cyclohexyl)-1H-benzimidazole-5-carboxamide] | 100 | –

Structure (SMILES) | inhibition at 10 µM [%] | inhibition at 1 µM [%]
O=C(NC1CCCC(O)C1)c1ccc2[nH]c(Nc3c(Cl)cccc3Cl)nc2c1 (stereo not drawn) [Example 226, 2-(2,6-Dichloro-phenylamino)-1H-benzimidazole-5-carboxylic acid (3-hydroxy-cyclohexyl)-amide] | 64 | –
CC(C)(C)[C@H]1CC[C@H](NC(=O)c2cc3nc(Nc4c(F)cccc4Cl)[nH]c3cc2F)CC1 [Example 357, N-((1r,4r)-4-tert.-Butylcyclohexyl)-2-(2-chloro-6-fluorophenylamino)-6-fluoro-1H-benzimidazole-5-carboxamide] | 100 | –
Cn1c(Nc2c(Cl)cccc2Cl)nc2cc(C(=O)NC3CCOCC3)ccc21 [Example 252, 2-(2,6-Dichloro-phenylamino)-1-methyl-1H-benzimidazole-5-carboxylic acid (tetrahydro-pyran-4-yl)-amide] | 68 | –
N#Cc1ccnc(NC(=O)c2ccc3[nH]c(Nc4c(Cl)cccc4Cl)nc3c2)c1 [Example 539, N-(4-Cyanopyridin-2-yl)-2-(2,6-dichlorophenylamino)-1H-benzimidazole-5-carboxamide] | 94 | –
COc1cc2c(cc1C(=O)NCc1ncccc1OC)nc(Nc1c(Cl)cccc1Cl)n2C [Example 491, 2-(2,6-Dichlorophenylamino)-6-methoxy-N-((3-methoxypyridin-2-yl)-methyl)-1-methyl-1H-benzimidazole-5-carboxamide] | 99 | –
Cn1c(Nc2cc(C(N)=O)ccc2Cl)nc2cc(C(=O)Nc3ccc(Br)cc3)ccc21 [Example 537, N-(4-Bromophenyl)-2-(5-carbamoyl-2-chlorophenylamino)-1-methyl-1H-benzimidazole-5-carboxamide] | 99 | –
Cc1cc2nc(NC(=O)c3ccc4[nH]c(Nc5c(Cl)cccc5Cl)nc4c3)[nH]c2cc1C [Example 314, 2-(2,6-Dichloro-phenylamino)-1H-benzimidazole-5-carboxylic acid (5,6-dimethyl-1H-benzimidazol-2-yl)-amide] | 97 | –
Cc1ccc(NC(=O)c2ccc3[nH]c(Nc4c(Cl)cccc4Cl)nc3c2)nc1 [Example 321, 2-(2,6-Dichloro-phenylamino)-1H-benzimidazole-5-carboxylic acid (5-methyl-pyridin-2-yl)-amide] | 93 | –
O=C(Nc1ccccc1Cl)c1ccc2[nH]c(Nc3c(Cl)cccc3Cl)nc2c1 [Example 284, 2-(2,6-Dichloro-phenylamino)-1H-benzimidazole-5-carboxylic acid (2-chloro-phenyl)-amide] | 100 | –
COc1cc2[nH]c(Nc3c(Cl)cc(F)cc3Cl)nc2cc1C(=O)Nc1ccc(Br)cc1 [Example 581, 2-(2,6-Dichloro-4-fluoro-phenylamino)-6-methoxy-N-(4-bromo-phenyl)-1H-benzimidazole-5-carboxamide] | 100 | –
Cn1c(Nc2c(Cl)cccc2Cl)nc2cc(C(=O)Nc3cc(N4CCCC4)ccn3)c(F)cc21 [Example 554, 2-(2,6-Dichlorophenylamino)-6-fluoro-1-methyl-N-(4-(pyrrolidin-1-yl)-pyridin-2-yl)-1H-benzimidazole-5-carboxamide] | 84 | –
O=C(Nc1ccc(Br)c(F)c1)c1cc2nc(Nc3c(Cl)cccc3Cl)[nH]c2cc1F [Example 121, 2-(2,6-Dichloro-phenylamino)-6-fluoro-1H-benzimidazol-5-carboxylic acid (4-bromo-3-fluoro-phenyl)-amide] | 95 | –
Cc1nc(NC(=O)c2ccc3[nH]c(Nc4c(Cl)cccc4Cl)nc3c2)sc1C [Example 77, 2-(2,6-Dichloro-phenylamino)-1H-benzimidazole-5-carboxylic acid (4,5-dimethyl-thiazol-2-yl)-amide] | 96 | –
CN(C)c1cc(C(F)(F)F)cc(NC(=O)c2cc3nc(Nc4c(Cl)cc(F)cc4Cl)[nH]c3cc2OCC(F)(F)F)n1 [Example 575, 2-(2,6-Dichloro-4-fluoro-phenylamino)-N-(6-dimethylamino-4-trifluoromethyl-pyridin-2-yl)-6-(2,2,2-trifluorethoxy)-1H-benzimidazole-5-carboxamide] | 82 | –
Cn1c(Nc2c(Cl)cccc2Cl)nc2cc(C(=O)Nc3cccc(Cl)c3)cc(Br)c21 [Example 405, 7-Bromo-N-(3-chlorophenyl)-2-(2,6-dichlorophenylamino)-1-methyl-1H-benzimidazole-5-carboxamide] | 100 | –
CC(=O)NCCCn1c(Nc2c(Cl)cccc2Cl)nc2cc(C(=O)Nc3cc(Cl)ccn3)ccc21 [Example 268, 2-(2,6-Dichloro-phenylamino)-1-(3-acetylamino-propyl)-1H-benzimidazole-5-carboxylic acid (4-chloro-pyridin-2-yl)-amide] | 94 | –
